Reference: the supplement of paper PMC10883282

What was measured:
Assay in all cases: relative viability vs DMSO control (72 h) (fraction); higher = more viable cells
[1] = tested on: SK-ES-1
In short: (§1)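 Relative viability is percent growth read by ATPLite and averaged over up to triplicate wells. Sarcoma cells were seeded in 384-well plates to reach 80–90% confluence and given 2.5 µl of serially diluted compound after 24 h, from source plates of 10 mM to 0.0002 mM. Incubation lasted 72 h at 37 °C, 5% CO2, with 0.1% DMSO vehicle and a 5 µM positive control, and the data were rescaled so 1 equals full and 0 equals none.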

[2] = tested on: SW982
In short: as §1

[3] = tested on: A204
In short: as §1

[4] = tested on: MES-SA
In short: as §1

[5] = tested on: RD
In short: as §1

[6] = tested on: HS729
In short: as §1

[7] = tested on: SK-LMS-1
In short: as §1

[8] = tested on: SW1353
In short: as §1

[9] = tested on: SW872
In short: as §1

[10] = tested on: G401
In short: as §1

[11] = tested on: VA-ES-BJ
In short: as §1

[12] = tested on: KHOS-240S
In short: as §1

CCN(c1cc(-c2ccc(CN3CCOCC3)cc2)cc(C(=O)NCc2c(C)cc(C)[nH]c2=O)c1C)C1CCOCC1 [Tazemetostat]
Details | relative viability
[1], 0.00017 µM | 1.03
[1], 0.00051 µM | 1.01
[1], 0.00152 µM | 0.982
[1], 0.00457 µM | 0.993
[1], 0.01372 µM | 0.972
[1], 0.04115 µM | 1.03
[1], 0.1235 µM | 1.009
[1], 0.3704 µM | 0.998
[1], 1.111 µM | 0.991
[1], 3.333 µM | 0.961
[1], 10 µM | 0.995
[2], 0.00017 µM | 0.968
[2], 0.00051 µM | 0.988
[2], 0.00152 µM | 0.977
[2], 0.00457 µM | 0.98
[2], 0.01372 µM | 0.973
[2], 0.04115 µM | 1.02
[2], 0.1235 µM | 0.985
[2], 0.3704 µM | 0.951
[2], 1.111 µM | 0.958
[2], 3.333 µM | 0.926
[2], 10 µM | 0.932
[3], 0.00017 µM | 1.04
[3], 0.00051 µM | 1.09
[3], 0.00152 µM | 1.08
[3], 0.00457 µM | 1.07
[3], 0.01372 µM | 1.03
[3], 0.04115 µM | 1.069
[3], 0.1235 µM | 1.08
[3], 0.3704 µM | 1.08
[3], 1.111 µM | 1.08
[3], 3.333 µM | 1.09
[3], 10 µM | 1.05
[4], 0.00017 µM | 1
[4], 0.00051 µM | 0.988
[4], 0.00152 µM | 0.9899
[4], 0.00457 µM | 0.986
[4], 0.01372 µM | 0.977
[4], 0.04115 µM | 0.998
[4], 0.1235 µM | 1
[4], 0.3704 µM | 0.942
[4], 1.111 µM | 0.933
[4], 3.333 µM | 0.926
[4], 10 µM | 0.874
[5], 0.00017 µM | 0.988
[5], 0.00051 µM | 1
[5], 0.00152 µM | 1.04
[5], 0.00457 µM | 1.04
[5], 0.01372 µM | 1.05
[5], 0.04115 µM | 1.03
[5], 0.1235 µM | 1.06
[5], 0.3704 µM | 1.03
[5], 1.111 µM | 1.04
[5], 3.333 µM | 1.04
[5], 10 µM | 1.03
[6], 0.00017 µM | 1.04
[6], 0.00051 µM | 1.05
[6], 0.00152 µM | 1.03
[6], 0.00457 µM | 1.05
[6], 0.01372 µM | 1.04
[6], 0.04115 µM | 1.01
[6], 0.1235 µM | 0.98
[6], 0.3704 µM | 1
[6], 1.111 µM | 0.938
[6], 3.333 µM | 0.932
[6], 10 µM | 0.892
[7], 0.00017 µM | 0.996
[7], 0.00051 µM | 1.02
[7], 0.00152 µM | 0.981
[7], 0.00457 µM | 1
[7], 0.01372 µM | 0.997
[7], 0.04115 µM | 1.03
[7], 0.1235 µM | 0.969
[7], 0.3704 µM | 0.9897
[7], 1.111 µM | 0.976
[7], 3.333 µM | 0.969
[7], 10 µM | 0.938
[8], 0.00017 µM | 1.08
[8], 0.00051 µM | 1.04
[8], 0.00152 µM | 1.065
[8], 0.00457 µM | 1.08
[8], 0.01372 µM | 1.05
[8], 0.04115 µM | 1.09
[8], 0.1235 µM | 1.05
[8], 0.3704 µM | 1.04
[8], 1.111 µM | 1.02
[8], 3.333 µM | 1.02
[8], 10 µM | 0.991
[9], 0.00017 µM | 1.04
[9], 0.00051 µM | 1.07
[9], 0.00152 µM | 1.07
[9], 0.00457 µM | 1.072
[9], 0.01372 µM | 1.066
[9], 0.04115 µM | 1.08
[9], 0.1235 µM | 1.05
[9], 0.3704 µM | 1.06
[9], 1.111 µM | 1.02
[9], 3.333 µM | 1.03
[9], 10 µM | 1.02
[10], 0.00017 µM | 1.03
[10], 0.00051 µM | 1.01
[10], 0.00152 µM | 1
[10], 0.00457 µM | 1.049
[10], 0.01372 µM | 1.05
[10], 0.04115 µM | 1.04
[10], 0.1235 µM | 1
[10], 0.3704 µM | 0.999
[10], 1.111 µM | 1.01
[10], 3.333 µM | 1.02
[10], 10 µM | 1.01
[11], 0.00017 µM | 1.038
[11], 0.00051 µM | 1.046
[11], 0.00152 µM | 1.05
[11], 0.00457 µM | 1.05
[11], 0.01372 µM | 1.034
[11], 0.04115 µM | 1.06
[11], 0.1235 µM | 1.06
[11], 0.3704 µM | 1.07
[11], 1.111 µM | 1.06
[11], 3.333 µM | 1.08
[11], 10 µM | 1.07
[12], 0.00017 µM | 1.02
[12], 0.00051 µM | 1.031
[12], 0.00152 µM | 1.03
[12], 0.00457 µM | 1.03
[12], 0.01372 µM | 1.01
[12], 0.04115 µM | 1.03
[12], 0.1235 µM | 1.01
[12], 0.3704 µM | 0.9861
[12], 1.111 µM | 0.9866
[12], 3.333 µM | 0.975
[12], 10 µM | 0.925
